No end group written: not given here.

One test deals with NOD mice. To be noted: subcutaneous administration; cited from earlier work.
Test [1] concerns spleen-derived lymphocytes. To be noted: splenocytes from DiaPep277-treated rats; stimulation 5 or 25 microgram/ml; planned second study.
Method: In this study, the preventive dose or control (PBS) is administered on days 4-14 to large groups of rats (30 per treatment arm), and followed up for signs of diabetes, as above. In addition, five rats of each group are sacrificed at 2 weeks, 1, 2, 3, 4 and 5 months of age, and at each time point the spleen is removed to determine the cytokine profile. Determination of the cytokine profile is performed by subjecting the spleen-derived lymphocytes to the following stimuli: None; Concanavalin A (1 microgram/ml); DiaPep277 (5 microgram/ml); DiaPep277 (25 microgram/ml).
A further test concerns BB-DP rats. The experiment in a line: Diabetes incidence and onset after neonatal oral DiaPep277 with conventional or HC diet. The class given is in vivo, rat. On the procedure: Experimental set-up: Group-housed BB-DP rats (breeding colony, Groningen, the Netherlands) were orally inoculated once per day with either placebo (aqua dist.) or Diapep277 at days 4, 5, 6 and 7 of life (black box in FIG. 1). Animals were treated in compliance with the principles of laboratory care (NIH publication no. 85-23, revised 1985) and the Dutch law on experimental animal care. Inoculation was done via a silicon-tube swallowed by the neonate and fluid was inoculated directly into the stomach. DiaPep277 was supplied by Peptor Ltd., Rehovot, Israel. It is an analog of the native 437-460 sequence of human hsp60, in which the existing cystein residues at positions 442 and 447 were replaced by valine, for better chemical stabilization. Per inoculation 300 μg/rat of Diapep277 in a volume of 300 μl was administered. At the age of 21 days (gray box in FIG. 1) rats were weaned either on a conventional, cereal-based diet (Hope Farms, rodent diet no. Rmh-B2181, Woerden, Netherlands) or on HC-diet, a modification of the AIN-93G diet containing 20% hydrolyzed casein (Pancase S; Redstar Bioproducts, Tara, Canada) as the source of aminoacids, 53% corn starch, 12% sucrose, 5% corn oil, 5% cellulose-type fiber (Solka-Floc; Teklad, Madison, Wis.) (Visser J. et al., 2003, Metabolism 52, 333-337, Scott F W et al., 1997, Diabetes 46, 589-598). In this study both sexes were used. In our colony 80% to 90% of the BB-DP rats spontaneously develop diabetes before the age of 130 days, with no gender differences. Body weights were measured three times per week. […] The degree of islet infiltration was measured using a Zeiss microscope and was rated as previously described (Visser J. et al., 2003, Metabolism 52, 333-337) with the addition of score 5 which is developed in our lab, to control for completely destroyed islets in severe insulitis. Per pancreas section, an average histological insulitis score was calculated by adding up the score of each islet and dividing it by the total number of islets counted. […]

Take “VLGGGCALLRCIPALDSLTPANED (cysteine pairing not given here) [p277, residues 437-460 of human Hsp60]”: the “development of diabetes (in words)” value in the test on NOD mice was “prevented the development of diabetes”.
For the sequence VLGGGVALLRVIPALDSLTPANED [DiaPep277], in test [1], the “cytokine response of splenocytes on DiaPep277 stimulation (in words)” value is listed as “focused Th2/Treg response”. The sequence further had a diabetes incidence with BB-DP rats (BB-DP rats, oral 300 μg/rat/day at days 4-7 of life, diet from weaning (day 21), followed to 140 days) of 69%. Further, the “improved chance of not developing diabetes” value in the test on BB-DP rats (all animals receiving DiaPep277, endpoint analysis, χ^2) is reported as 2.2 fold. In addition, the “protection against diabetes (in words)” value in the test on BB-DP rats (neonatal oral administration alone, conventional diet) is “did not lead to significant protection”.

(Values after patent US8828922B2, “HSP therapy in conjunction with a low antigenicity diet” (Andromeda Biotech Ltd., priority 2004, dated 2014).)
